Earlier results on one molecule are cited in patent US20210346497A1, “Methods of Treating Cancer” (Tesaro, Inc., priority 2018, published 2021).

Series [1] deals with PARP activity in various cell lines.
Series [2] relates to cancer cell lines silenced for BRCA-1 or BRCA-2, or carrying BRCA-1 or BRCA-2 mutations.
The subject of series [3] is MDA-MB-436, CAPAN-1, GRANTA-519, OVCAR3, HT29, DLD-1, patient derived Ewing's sarcoma and TNBC xenograft models. As to conditions: BRCA-1 mutant breast, BRCA-2 mutant pancreatic, ATM-mutant mantle cell lymphoma, serous ovarian, colorectal, TNBC xenografts in mice.

Turning to `Cc1ccc(S(=O)(=O)O)cc1.NC(=O)c1cccc2cn(-c3ccc([C@@H]4CCCNC4)cc3)nc12` [Niraparib, (3S)-3-[4-{7-(aminocarbonyl)-2H-indazol-2-yl}phenyl]piperidine], the IC50 in series [1] (read-out: IC50 of PARP activity in cells, PARP activity stimulated by DNA damage caused by hydrogen peroxide) was approximately 0.004 µM. Besides, the IC90 in series [1] (read-out: inhibitory concentration at 90% of control (IC90) of PARP activity in cells, PARP activity stimulated by DNA damage caused by hydrogen peroxide) is approximately 0.05 µM. For the same molecule, the “activity on normal human cells” value in the series with normal human cells is recorded as “weak activity”. Besides, the cell cycle arrest result in the series on tumor cell is “arrest in the G2/M phase of the cell cycle”. In addition, the anti-proliferative activity entry in series [2] (BRCA-1/BRCA-2 silenced or mutant cancer cell lines compared to wild type counterparts) is “selective anti-proliferative activity”. The “consequence on cell cycle of BRCA-defective cells” value in series [2] (BRCA-defective cells) is “cell cycle arrest in G2/M followed by apoptosis”. Moreover, in series [3], the “antitumor activity in vivo” value is on record as “strong antitumor activity”.

One may read the IC50 as the concentration at which inhibition is half-maximal.
